{
  "source": "patent US6645490B2",
  "about": "“Chimeric proteins with cell-targeting specificity and apoptosis-inducing activities” (priority 1998, dated 2003)",
  "key": {"Km3": {"tested_on": "Km3", "test": "Cytotoxicity assay, [3H] leucine incorporation (inhibition of protein synthesis)", "assay_type": "cell-based, human", "conditions": "Km3, IL2R negative; FIG. 5B", "description": "(§1) Cells (10^4 in 0.2 ml culture medium) were seeded in 96-well microplates, followed by the addition of various concentrations of the chimeric protein (diluted with 0.25% BSA in PBS). After a 24 hour incubation, [^3H] leucine (2-5 uci/well) were added for 6-13 hr. The plates were then stored at −70° C. for several hours, followed by quick thawing at 37° C. This step was omitted with targets cells growing in suspension. The cells were harvested on filters and the incorporated radioactivity was measured with a β counter. Results were expressed as the percent incorporation of the control experiments in which the cells were not exposed to any protein. All assays were carried out in triplicates.\n(§2) The effects of IL2-Bax were also tested on various IL2R negative cells: CEM cells (a human T-cell line lacking the IL2R) and Km3 (a human non-T, non-B stem cell line). […] Since the fraction treated with Gu-HCl was active without any non-specific cytotoxicity, this fraction was further used in subsequent experiments."}, "CEM cells [1]": {"tested_on": "CEM cells", "test": "Cytotoxicity assay, [3H] leucine incorporation (inhibition of protein synthesis)", "assay_type": "cell-based, human", "conditions": "lacking the IL2R, FIG. 5B", "description": "as §1, §2"}, "2B4 cells": {"tested_on": "2B4 cells", "test": "Cytotoxicity assay, [3H] leucine incorporation (inhibition of protein synthesis)", "assay_type": "cell-based, mouse", "conditions": "2B4, IL2R-expressing; FIG. 5A", "description": "as §1\n(§3) The cytotoxic activity of the IL2-Bax chimeric protein was tested on HUT102 and MT-1 cells (human T-cell lines), and 2B4 cells (mouse T-cells); all known to express the high affinity receptor for IL2, by a quantitative assay, in which inhibition of protein synthesis was measured. The soluble and insoluble fractions generated from treatment under three different conditions were tested in cytotoxicity assays as described by Lorberboum-Galski et al. (1988, J. Biol. Chem. 263:18650-18656). […] This may be attributed to the different number of IL2R expressed on each cell line. […]"}, "[2]": {"tested_on": "Human peripheral blood lymphocytes", "test": "Assay for identifying apoptotic cells, FACS of fresh lymphocytes", "assay_type": "cell-based", "set-up": "unit not given here", "conditions": "for M1-2 / M1 / M2: Experiment No. 1; for M1 / M2 / UL / UR: mean of duplicates; for UL + UR / UL / UR: Experiment No. 2", "description": "Human peripheral blood lymphocytes from healthy donors were separated using Ficoll-Isopaque gradient (1.077) (Pharmacia) and used immediately. Lymphocytes were cultured in 5% CO2 in air in RPMI 1640 medium supplemented with 10% fetal calf serum, 200 μg/ml L-glutamate, 50 μg/ml penicillin, 50 μg/ml streptomycin, 50 μg/ml glutamine and 5×10^−5 M 2-β mercaptoethanol. Increasing concentrations of IL2-Bax (insoluble fraction, 6M Gu-HCl treated) were added to the lymphocytes for 22 hr. Cells were then stained with:\nA. Propidium Iodide (PI, 3.5 μg/ml)\nB. Propidium Iodide with a detergent for measuring cell cycle (0.7 ml of the PI buffer: 50 μg/ml PI, 0.1% Nacitrate, 0.1% Triton×100, were added to a cell pellet of ˜10^6 cells). Cells were then analyzed by FACS."}, "MT-1 cells": {"tested_on": "MT-1 cells", "test": "Cytotoxicity assay, [3H] leucine incorporation (inhibition of protein synthesis)", "assay_type": "cell-based, human", "conditions": "MT-1, IL2R-expressing; FIG. 5A", "description": "as §1, §3"}, "HUT102 cells [3]": {"tested_on": "HUT102 cells", "test": "Cytotoxicity assay, [3H] leucine incorporation (inhibition of protein synthesis)", "assay_type": "cell-based, human", "conditions": "HUT102, IL2R-expressing; FIG. 5A", "description": "as §1, §3"}, "CEM cells [4]": {"tested_on": "CEM cells", "test": "Assay for identifying apoptotic cells, FACS (PI fluorescence of nuclei)", "assay_type": "cell-based, human", "conditions": "CEM cells lacking IL2R expression; FIGS. 9A-9C", "description": "(§4) HUT102 cells (target T cells) and CEM cells (non-target T cells) were incubated overnight with increasing concentrations of IL2-Bax. The 200×g centrifuged cell pellet was fixed in 2 ml cold 70% ethanol at 4° C. for 60 min. The cells were then centrifuged, washed in 1 ml PBS and resuspended in 0.5 ml PBS. 0.5 ml RNAse (Type I-A, Sigma, St. Louis, Mo., 1 mg/ml in PBS) was added to the sample, followed by gentle mixing with 1 ml PI (Sigma, 100 μg/ml PBS) solution. The mixed cells were incubated in the dark at room temperature for 15 min. and kept at 4° C. in the dark until measured. The PI fluorescence of the individual nuclei was measured using FACS flow cytometer. The forward scatter and side scatter of particles were simultaneously measured. Cell debris were excluded from analysis by appropriately raising the forward scatter threshold (Nicoletti et al., 1991, J. Immunol. Meth. 139:271-279)."}, "HUT102 cells [5]": {"tested_on": "HUT102 cells", "test": "Assay for identifying apoptotic cells, FACS (PI fluorescence of nuclei)", "assay_type": "cell-based, human", "conditions": "highest concentration tested, overnight", "description": "as §4"}},
  "data": [
    {"compound": "IL2-Bax", "values": [
      {"measurement": "Cytotoxic activity (inhibition of protein synthesis)", "setting": "Km3", "value": "unaffected"},
      {"measurement": "Cytotoxic activity (inhibition of protein synthesis)", "setting": "CEM cells [1]", "value": "unaffected"},
      {"measurement": "Cytotoxic activity (inhibition of protein synthesis)", "setting": "2B4 cells", "value": "responsive to the chimeric protein in a dose dependent manner"},
      {"measurement": "M1-2", "setting": "[2]; 1 μg, 22 hr", "value": 13.5},
      {"measurement": "M1", "setting": "[2]; 1 μg, 22 hr", "value": 17.5},
      {"measurement": "M2", "setting": "[2]; 1 μg, 22 hr", "value": 4},
      {"measurement": "M1-2", "setting": "[2]; 5 μg, 22 hr", "value": 20},
      {"measurement": "M1", "setting": "[2]; 5 μg, 22 hr", "value": 24.3},
      {"measurement": "M2", "setting": "[2]; 5 μg, 22 hr", "value": 4.3},
      {"measurement": "M1-2", "setting": "[2]; 10 μg, 22 hr", "value": 35},
      {"measurement": "M1", "setting": "[2]; 10 μg, 22 hr", "value": 42.1},
      {"measurement": "M2", "setting": "[2]; 10 μg, 22 hr", "value": 9.1},
      {"measurement": "UL + UR", "setting": "[2]; 1 μg, 22 hr", "value": 10.54},
      {"measurement": "UL", "setting": "[2]; 1 μg, 22 hr", "value": 4.98},
      {"measurement": "UR", "setting": "[2]; 1 μg, 22 hr", "value": 5.56},
      {"measurement": "UL + UR", "setting": "[2]; 10 μg, 22 hr", "value": 31.55},
      {"measurement": "UL", "setting": "[2]; 10 μg, 22 hr", "value": 14.71},
      {"measurement": "UR", "setting": "[2]; 10 μg, 22 hr", "value": 16.84},
      {"measurement": "Cytotoxic activity (inhibition of protein synthesis)", "setting": "MT-1 cells", "value": "responsive to the chimeric protein in a dose dependent manner"},
      {"measurement": "Cytotoxic activity (inhibition of protein synthesis)", "setting": "HUT102 cells [3]", "value": "responsive to the chimeric protein in a dose dependent manner"},
      {"measurement": "Increase in the apoptotic cell population", "setting": "CEM cells [4]", "value": "did not show an increase in the apoptotic cell population"},
      {"measurement": "Increase in the percentage of the apoptotic-cell population (sub-G1, M1)", "setting": "HUT102 cells [5]", "value": 3.6, "unit": "fold"}
    ]},
    {"compound": "C[C@@H]1C[C@H]2[C@@H]3CCC4=CC(=O)C=C[C@]4(C)[C@@]3(F)[C@@H](O)C[C@]2(C)[C@@]1(O)C(=O)CO", "note": "[dexamethasone, reference compound]", "values": [
      {"measurement": "M1-2", "setting": "[2]; dexamethasone (10^-7 M)", "value": 6.7},
      {"measurement": "M1", "setting": "[2]; dexamethasone (10^-7 M)", "value": 9.5},
      {"measurement": "M2", "setting": "[2]; dexamethasone (10^-7 M)", "value": 2.8}
    ]}
  ]
}
